Results as given in the NIST ThermoML archive (doi:10.1016/j.jct.2012.02.038).
“And” between values parts separate entries of the source, which are not always exact repeats. Equal entries are not always repeated. ± gives the expanded uncertainty stated by the source.

Tests used:
[1] = refractive index (other wavelength) (dimensionless); xn = mol fraction of the nth substance listed; conditions: 101.3 kPa, Liquid, Wavelength=632.8 nm, Minimum deviation technique
[2] = refractive index (other wavelength) (dimensionless); conditions: 101.3 kPa, Liquid, Wavelength=632.8 nm, Minimum deviation technique

COC(=O)CCCCC(=O)OC [dimethyl 1,6-hexanedioate] + CCCCCCCC
refractive index ([1]; 299.79 K, x1 = 0.099): 1.3955 ± 0.0002 | refractive index ([1]; 299.79 K, x1 = 0.2): 1.3985 ± 0.0002 | refractive index ([1]; 299.79 K, x1 = 0.302): 1.4014 ± 0.0002 | refractive index ([1]; 299.79 K, x1 = 0.4): 1.4047 ± 0.0002 | refractive index ([1]; 299.79 K, x1 = 0.5): 1.408 ± 0.001 | refractive index ([1]; 299.79 K, x1 = 0.602): 1.4113 ± 0.0002 | refractive index ([1]; 299.79 K, x1 = 0.701): 1.4146 ± 0.0002 | refractive index ([1]; 299.79 K, x1 = 0.8): 1.418 ± 0.0002 | refractive index ([1]; 299.79 K, x1 = 0.899): 1.4214 ± 0.0002

CCCCCCCCC [nonane]
refractive index ([2]; 299.25 K): 1.4015 ± 0.0002 | refractive index ([2]; 300.07 K): 1.4011 ± 0.0002 | refractive index ([2]; 300.85 K): 1.4007 ± 0.0002 | refractive index ([2]; 301.85 K): 1.4003 ± 0.0002 | refractive index ([2]; 302.57 K): 1.3999 ± 0.0002 | refractive index ([2]; 303.3 K): 1.3995 ± 0.0002 | refractive index ([2]; 303.83 K): 1.3993 ± 0.0002

COC(=O)CCCCC(=O)OC [dimethyl 1,6-hexanedioate] + CCCCCCCCC
refractive index ([1]; 305.07 K, x1 = 0.101): 1.4 ± 0.0002 | refractive index ([1]; 305.07 K, x1 = 0.2): 1.4017 ± 0.0002 | refractive index ([1]; 305.07 K, x1 = 0.295): 1.404 ± 0.0002 | refractive index ([1]; 305.07 K, x1 = 0.39): 1.406 ± 0.0002 | refractive index ([1]; 305.07 K, x1 = 0.492): 1.4085 ± 0.0002 | refractive index ([1]; 305.07 K, x1 = 0.594): 1.411 ± 0.0002 | refractive index ([1]; 305.07 K, x1 = 0.713): 1.4143 ± 0.0002 | refractive index ([1]; 305.07 K, x1 = 0.79): 1.4163 ± 0.0002 | refractive index ([1]; 305.07 K, x1 = 0.902): 1.4197 ± 0.0002

COC(=O)CCCCC(=O)OC [dimethyl 1,6-hexanedioate]
refractive index ([2]; 293.15 K): 1.4275 ± 0.0002 | refractive index ([2]; 294.14 K): 1.4271 ± 0.0002 | refractive index ([2]; 295.19 K): 1.4267 ± 0.0002 | refractive index ([2]; 296.25 K): 1.4263 ± 0.0002 | refractive index ([2]; 298.35 K): 1.4254 ± 0.0002 | refractive index ([2]; 299.4 K): 1.425 ± 0.0002 and 1.4249 ± 0.0002 | refractive index ([2]; 300.18 K): 1.4246 ± 0.0002 | refractive index ([2]; 301 K): 1.4243 ± 0.0002 | refractive index ([2]; 301.84 K): 1.4239 ± 0.0002 | refractive index ([2]; 302.58 K): 1.4236 ± 0.0002 | refractive index ([2]; 303.19 K): 1.4234 ± 0.0002 | refractive index ([2]; 303.88 K): 1.4231 ± 0.0002

CCCCCCCC [octane]
refractive index ([2]; 293.23 K): 1.3964 ± 0.0002 | refractive index ([2]; 294.23 K): 1.3959 ± 0.0002 | refractive index ([2]; 295.29 K): 1.3954 ± 0.0002 | refractive index ([2]; 296.27 K): 1.3949 ± 0.0002 | refractive index ([2]; 297.41 K): 1.3944 ± 0.0002 | refractive index ([2]; 298.48 K): 1.3939 ± 0.0002 | refractive index ([2]; 299.5 K): 1.3934 ± 0.0002
